Tests used:
[1] = Selectivity index, ratio of CC50 for Cytotoxicity against african green monkey Vero cells to IC50 for Antiviral activity against HSV1 infected in African green monkey Vero cells; format: toxicity, cell-based; details: read-out: Selectivity Index
[2] = system: Human alphaherpesvirus 1; assay: Antiviral activity against HSV1 infected in African green monkey Vero cells assessed as reduction of virus-induced cytopathic effect measured after 48 hrs of incubation; format: functional, organism-based; details: Human alphaherpesvirus 1, Vero
[3] = Cytotoxicity against African green monkey Vero cells assessed as cell viability measured after 24 hrs incubation by MTT assay; format: toxicity, cell-based; details: chlorocebus sabaeus
[4] = system: Human alphaherpesvirus 1; assay: Antiviral activity against ACV-resistant HSV1 Blue infected in African green monkey Vero cells assessed as reduction of virus-induced cytopathic effect measured after 48 hrs of incubation; format: functional, organism-based; details: Human alphaherpesvirus 1, Blue
[5] = system: Human alphaherpesvirus 1; assay: Antiviral activity against ACV-resistant HSV1 153 infected in African green monkey Vero cells assessed as reduction of virus-induced cytopathic effect measured after 48 hrs of incubation; format: functional, organism-based; details: Human alphaherpesvirus 1, 153, Vero

Row | Structure (SMILES) | selectivity ratio [1] | IC50 [2] [nM] | CC50 at 24 h [3] [nM] | IC50 [4] [nM] | IC50 [5] [nM]
1 | CC(C)CC1C2=C(Oc3c(C(=O)C(C)C)c(O)cc(O)c31)C(C)(C)C(=O)C(C)(C)C2=O (racemic) | 3.65 | 3500 | 12800 |  | 
2 | CC(C)CC1C2=C(Oc3c(C(=O)C4CCC4)c(O)cc(O)c31)C(C)(C)C(=O)C(C)(C)C2=O (stereo not drawn) | < 2.72 | 5500 | 10000 |  | 
3 | COc1cc2c(c(OC)c1C(=O)CC(C)C)C(CC(C)C)C1=C(O2)C(C)(C)C(=O)C(C)(C)C1=O (stereo not drawn) |  | 50000 | > 100000 |  | 
4 | CC(C)CC1C2=C(Oc3cc(O)c(C=O)c(O)c31)C(C)(C)C(=O)C(C)(C)C2=O (stereo not drawn) | 3.56 | 4500 | 16000 |  | 
5 | CC(C)CC(=O)c1c(O)cc2c(c1O)C(c1ccccc1)C1=C(O2)C(C)(C)C(=O)C(C)(C)C1=O (stereo not drawn) | 24.4 | 450 | 11000 | 400 | 300
6 | CC(=O)c1c(O)cc(O)c2c1OC1=C(C(=O)C(C)(C)C(=O)C1(C)C)C2CC(C)C (stereo not drawn) | > 10 | 10000 | > 100000 |  | 
7 | CC(C)CC1C2=C(Oc3cc(O)c(C(=O)C4CCCC4)c(O)c31)C(C)(C)C(=O)C(C)(C)C2=O (stereo not drawn) | 15.5 | 580 | 9000 | 300 | 300
8 | CC(C)CC(=O)c1c(O)c(C=O)c2c(c1O)C(CC(C)C)C1=C(O2)C(C)(C)C(=O)C(C)(C)C1=O (stereo not drawn) | 3.6 | 2500 | 9000 |  | 
9 | CC(C)CC(=O)c1c(O)cc2c(c1O)C(C1CCCCC1)C1=C(O2)C(C)(C)C(=O)C(C)(C)C1=O (stereo not drawn) | 12.5 | 800 | 10000 | 500 | 500
10 | CC(C)CC(=O)c1c(O)cc2c(c1O)[C@@H](CC(C)C)C1=C(O2)C(C)(C)C(=O)C(C)(C)C1=O | 18.3 | 410 | 7500 |  | 
11 | CC(C)CC1C2=C(Oc3cc(O)c(C(=O)Cc4ccc(F)cc4)c(O)c31)C(C)(C)C(=O)C(C)(C)C2=O (stereo not drawn) | 17.1 | 350 | 6000 | 200 | 200
12 | CC(C)CC(=O)c1c(O)cc(O)c2c1OC1=C(C(=O)C(C)(C)C(=O)C1(C)C)C2c1ccccc1 (racemic) | 5.11 | 2500 | 12800 |  | 
13 | CC(C)CC1C2=C(Oc3cc(O)c(C(=O)C(C)C)c(O)c31)C(C)(C)C(=O)C(C)(C)C2=O (stereo not drawn) | 17.8 | 630 | 7000 | 300 | 400
14 | CCCCC(=O)c1c(O)cc2c(c1O)C(CC(C)C)C1=C(O2)C(C)(C)C(=O)C(C)(C)C1=O (stereo not drawn) | 20 | 500 | 8000 | 1200 | 1200
15 | CCC1C2=C(Oc3c(C(=O)CC(C)C)c(O)cc(O)c31)C(C)(C)C(=O)C(C)(C)C2=O (racemic) | < 10 | 1500 | 10000 |  | 
16 | CC(C)CC(=O)c1c(O)cc2c(c1O)C(C1CCCC1)C1=C(O2)C(C)(C)C(=O)C(C)(C)C1=O (stereo not drawn) | 11.4 | 700 | 8000 | 500 | 500
17 | CC(C)CC(=O)c1c(O)cc2c(c1O)[C@H](CC(C)C)C1=C(C[C@H](C)CC1=O)O2 | 8.89 | 2250 | 20000 |  | 
18 | COc1cc2c(c(O)c1C(=O)CC(C)C)C(CC(C)C)C1=C(O2)C(C)(C)C(=O)C(C)(C)C1=O (stereo not drawn) |  | > 100000 | > 100000 |  | 
19 | CC(C)CC(=O)c1c(O)cc2c(c1O)C(CC(C)C)C1=C(CCC(C)(C)C1=O)O2 (stereo not drawn) | 7.27 | 2200 | 16000 |  | 
20 | CCCCC1C2=C(Oc3cc(O)c(C(=O)CC(C)C)c(O)c31)C(C)(C)C(=O)C(C)(C)C2=O (stereo not drawn) | 10 | 1000 | 10000 | 600 | 400
21 | CC(C)CC(=O)c1c(O)cc2c(c1O)[C@@H](CC(C)C)C1=C(C[C@H](C)CC1=O)O2 | 7 | 2000 | 14000 |  | 
22 | CC(C)CC1C2=C(Oc3cc(O)c(C(=O)Cc4ccccc4)c(O)c31)C(C)(C)C(=O)C(C)(C)C2=O (stereo not drawn) | 21.2 | 400 | 8500 | 300 | 500
23 | CC(=O)Oc1cc2c(c(OC(C)=O)c1C(=O)CC(C)C)C(CC(C)C)C1=C(O2)C(C)(C)C(=O)C(C)(C)C1=O (stereo not drawn) | 14 | 500 | 7000 | 300 | 400
24 | CC(C)CC(=O)c1c(O)cc2c(c1O)[C@H](CC(C)C)C1=C(O2)C(C)(C)C(=O)C(C)(C)C1=O | 18.7 | 390 | 7280 |  | 
25 | CC(C)CC1C2=C(Oc3cc(O)c(C(=O)c4ccccc4)c(O)c31)C(C)(C)C(=O)C(C)(C)C2=O (stereo not drawn) | 4 | 2500 | 10000 |  | 

From ChEMBL document CHEMBL6182947, “Discovery of Phloroglucinol Derivatives as a New Type of Nonnucleoside Inhibitors with Anti-herpes Simplex Virus Type 1 Activity” (J Med Chem, 2025)
